# Target: human TRPA1 (Homo sapiens (Human), UniProt O75762)
# Experiment: In vitro inhibition of human TRPA1, whole cell patch configuration
# Format: cell-based
# Conditions: current activation 10 μM AITC, tested concentrations 320 pM to 3.2 μM, read-out: hTRPA1 IC50
# How it was run: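 Compound antagonism measured from voltage ramps (±100 or ±80 mV, 400 ms, every 4 s from −40 mV), analysed at −80 and 80 mV, or at constant −60 mV. HEPES-buffered NaCl bath, pH 7.4, EGTA or 2 mM Ca2+; temperature set by perfusion, within ±2° C; no junction-potential correction.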
# Sequence of human TRPA1 (O75762 whole entry): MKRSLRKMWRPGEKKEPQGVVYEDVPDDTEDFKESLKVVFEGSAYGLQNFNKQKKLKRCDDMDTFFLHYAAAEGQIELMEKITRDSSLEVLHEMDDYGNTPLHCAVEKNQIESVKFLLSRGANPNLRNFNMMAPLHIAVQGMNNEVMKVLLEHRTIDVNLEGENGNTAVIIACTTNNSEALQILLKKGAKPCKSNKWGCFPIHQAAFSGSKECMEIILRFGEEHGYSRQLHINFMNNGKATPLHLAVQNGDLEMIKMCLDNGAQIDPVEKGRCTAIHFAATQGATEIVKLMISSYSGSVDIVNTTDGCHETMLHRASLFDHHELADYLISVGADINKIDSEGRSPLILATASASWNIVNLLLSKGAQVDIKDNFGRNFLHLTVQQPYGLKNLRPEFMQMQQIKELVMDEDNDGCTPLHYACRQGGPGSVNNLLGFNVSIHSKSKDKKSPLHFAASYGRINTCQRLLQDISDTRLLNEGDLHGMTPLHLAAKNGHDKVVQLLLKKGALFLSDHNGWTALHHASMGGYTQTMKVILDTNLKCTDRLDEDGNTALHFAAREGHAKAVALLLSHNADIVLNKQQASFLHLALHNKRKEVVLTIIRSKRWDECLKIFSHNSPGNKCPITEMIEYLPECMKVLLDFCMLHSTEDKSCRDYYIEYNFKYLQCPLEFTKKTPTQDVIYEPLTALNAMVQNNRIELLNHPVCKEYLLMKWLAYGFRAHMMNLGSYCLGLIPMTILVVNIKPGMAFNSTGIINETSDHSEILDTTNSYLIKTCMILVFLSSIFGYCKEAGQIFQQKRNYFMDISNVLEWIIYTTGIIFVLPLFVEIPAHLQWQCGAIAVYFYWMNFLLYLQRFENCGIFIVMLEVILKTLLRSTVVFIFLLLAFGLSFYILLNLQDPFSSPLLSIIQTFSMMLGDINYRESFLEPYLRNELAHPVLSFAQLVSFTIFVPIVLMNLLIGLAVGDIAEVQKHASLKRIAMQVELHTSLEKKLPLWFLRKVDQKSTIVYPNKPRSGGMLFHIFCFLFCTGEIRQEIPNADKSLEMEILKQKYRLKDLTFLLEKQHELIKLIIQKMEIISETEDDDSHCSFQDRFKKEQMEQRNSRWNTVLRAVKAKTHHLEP
row,IC50,Structure (SMILES)
1,2 nM,"CCC(=O)Cn1c(=O)c2c(ncn2CC(=O)Nc2cccc(-c3cnc(C)c(C(F)(F)F)c3)n2)n(C)c1=O [Compound 235, 2-(3-methyl-2,6-dioxo-1-(2-oxobutyl)-2,3-dihydro-1H-purin-7(6H)-yl)-N-(6′-methyl-5′-(trifluoromethyl)-[2,3′-bipyridin]-6-yl)acetamide]"
2,711 nM,"Cc1ncc(-c2cccc(NC(=O)Cn3cnc4c3c(=O)n(CCCO)c(=O)n4C)n2)cc1C(F)(F)F [Compound 236, 2-(1-(3-hydroxypropyl)-3-methyl-2,6-dioxo-2,3-dihydro-1H-purin-7(6H)-yl)-N-(6′-methyl-5′-(trifluoromethyl)-[2,3′-bipyridin]-6-yl)acetamide]"
3,236 nM,Cc1ncc(-c2cccc(NC(=O)Cn3cnc4c3c(=O)n(CCO)c(=O)n4C)n2)cc1C(F)(F)F [Compound 237]
4,4 nM,"Cc1cc(Cn2c(=O)c3c(ncn3CC(=O)Nc3cccc(-c4cnc(C)c(C(F)(F)F)c4)n3)n(C)c2=O)no1 [Compound 238, 2-(3-methyl-1-((5-methylisoxazol-3-yl)methyl)-2,6-dioxo-2,3-dihydro-1H-purin-7(6H)-yl)-N-(6′-methyl-5′-(trifluoromethyl)-[2,3′-bipyridin]-6-yl)acetamide]"
5,3 nM,"Cc1ncc(-c2cccc(NC(=O)Cn3cnc4c3c(=O)n(Cc3ccon3)c(=O)n4C)n2)cc1C(F)(F)F [Compound 239, 2-(1-(isoxazol-3-ylmethyl)-3-methyl-2,6-dioxo-2,3-dihydro-1H-purin-7(6H)-yl)-N-(6′-methyl-5′-(trifluoromethyl)-[2,3′-bipyridin]-6-yl)acetamide]"
6,7 nM,Cc1nc(Cn2c(=O)c3c(ncn3CC(=O)Nc3cccc(-c4cnc(C)c(C(F)(F)F)c4)n3)n(C)c2=O)no1 [Compound 240]
7,1 nM,Cc1noc(Cn2c(=O)c3c(ncn3CC(=O)Nc3cccc(-c4cnc(C)c(C(F)(F)F)c4)n3)n(C)c2=O)n1 [Compound 241]
8,290 nM,"CC(=O)CCn1c(=O)c2c(ncn2CC(=O)Nc2cccc(-c3cnc(C)c(C(F)(F)F)c3)n2)n(C)c1=O [Compound 242, 2-(3-methyl-2,6-dioxo-1-(3-oxobutyl)-2,3-dihydro-1H-purin-7(6H)-yl)-N-(6′-methyl-5′-(trifluoromethyl)-[2,3′-bipyridin]-6-yl)acetamide]"
9,6 nM,"CCC(=O)Cn1c(=O)c2c(ncn2CC(=O)Nc2cncc(-c3cnc(C)c(C(F)(F)F)c3)n2)n(C)c1=O [Compound 243, 2-(3-methyl-2,6-dioxo-1-(2-oxobutyl)-2,3-dihydro-1H-purin-7(6H)-yl)-N-(6-(6-methyl-5-(trifluoromethyl)pyridin-3-yl)pyrazin-2-yl)acetamide]"
10,1 nM,"Cc1cc(Cn2c(=O)c3c(ncn3CC(=O)Nc3csc(-c4cnc(C)c(C(F)(F)F)c4)n3)n(C)c2=O)no1 [Compound 246, 2-(3-methyl-1-((5-methylisoxazol-3-yl)methyl)-2,6-dioxo-2,3-dihydro-1H-purin-7(6H)-yl)-N-(2-(6-methyl-5-(trifluoromethyl)pyridin-3-yl)thiazol-4-yl)acetamide]"
11,2 nM,"CCC(=O)Cn1c(=O)c2c(ncn2CC(=O)Nc2csc(-c3cnc(C)c(C(F)(F)F)c3)n2)n(C)c1=O [Compound 247, 2-(3-methyl-2,6-dioxo-1-(2-oxobutyl)-2,3-dihydro-1H-purin-7(6H)-yl)-N-(2-(6-methyl-5-(trifluoromethyl)pyridin-3-yl)thiazol-4-yl)acetamide]"
12,4 nM,"Cc1nc(Cn2c(=O)c3c(ncn3CC(=O)Nc3csc(-c4cnc(C)c(C(F)(F)F)c4)n3)n(C)c2=O)no1 [Compound 248, 2-(3-methyl-1-((5-methyl-1,2,4-oxadiazol-3-yl)methyl)-2,6-dioxo-2,3-dihydro-1H-purin-7(6H)-yl)-N-(2-(6-methyl-5-(trifluoromethyl)pyridin-3-yl)thiazol-4-yl)acetamide]"
13,6 nM,"CCC(=O)Cn1c(=O)c2c(ncn2CC(=O)Nc2csc(-c3cnc(C(F)(F)F)c(C)c3)n2)n(C)c1=O [Compound 249, 2-(3-methyl-2,6-dioxo-1-(2-oxobutyl)-2,3-dihydro-1H-purin-7(6H)-yl)-N-(2-(5-methyl-6-(trifluoromethyl)pyridin-3-yl)thiazol-4-yl)acetamide]"
14,6 nM,"Cc1noc(Cn2c(=O)c3c(ncn3CC(=O)Nc3csc(-c4cnc(C(F)(F)F)c(C)c4)n3)n(C)c2=O)n1 [Compound 250, 2-(3-methyl-1-((3-methyl-1,2,4-oxadiazol-5-yl)methyl)-2,6-dioxo-2,3-dihydro-1H-purin-7(6H)-yl)-N-(2-(5-methyl-6-(trifluoromethyl)pyridin-3-yl)thiazol-4-yl)acetamide]"
15,219 nM,"Cc1cc(-c2nc(NC(=O)Cn3cnc4c3c(=O)n(CC(F)(F)F)c(=O)n4C)cs2)cnc1C(F)(F)F [Compound 251, 2-(3-methyl-2,6-dioxo-1-(2,2,2-trifluoroethyl)-2,3-dihydro-1H-purin-7(6H)-yl)-N-(2-(5-methyl-6-(trifluoromethyl)pyridin-3-yl)thiazol-4-yl)acetamide]"
16,1 nM,"Cc1noc(Cn2c(=O)c3c(ncn3CC(=O)Nc3csc(-c4cnc(C)c(C(F)(F)F)c4)n3)n(C)c2=O)n1 [Compound 252, 2-(3-methyl-1-((3-methyl-1,2,4-oxadiazol-5-yl)methyl)-2,6-dioxo-2,3-dihydro-1H-purin-7(6H)-yl)-N-(2-(6-methyl-5-(trifluoromethyl)pyridin-3-yl)thiazol-4-yl)acetamide]"
17,14 nM,"COCC(=O)Cn1c(=O)c2c(ncn2CC(=O)Nc2csc(-c3cnc(C)c(C(F)(F)F)c3)n2)n(C)c1=O [Compound 254, 2-(1-(3-methoxy-2-oxopropyl)-3-methyl-2,6-dioxo-2,3-dihydro-1H-purin-7(6H)-yl)-N-(2-(6-methyl-5-(trifluoromethyl)pyridin-3-yl)thiazol-4-yl)acetamide]"
18,13 nM,"COCC(=O)Cn1c(=O)c2c(ncn2CC(=O)Nc2csc(-c3cnc(C(F)(F)F)c(C)c3)n2)n(C)c1=O [Compound 255, 2-(1-(3-methoxy-2-oxopropyl)-3-methyl-2,6-dioxo-2,3-dihydro-1H-purin-7(6H)-yl)-N-(2-(5-methyl-6-(trifluoromethyl)pyridin-3-yl)thiazol-4-yl)acetamide]"
19,5 nM,"CCC(=O)Cn1c(=O)c2c(ncn2[C@@H](C)C(=O)Nc2cccc(-c3cnc(N4CC5C(C4)C5(F)F)cn3)n2)n(C)c1=O (stereo partly drawn) [Compound 256, (2S)—N-(6-(5-(6,6-difluoro-3-azabicyclo[3.1.0]hexan-3-yl)pyrazin-2-yl)pyridin-2-yl)-2-(3-methyl-2,6-dioxo-1-(2-oxobutyl)-2,3-dihydro-1H-purin-7(6H)-yl)propanamide]"
20,11 nM,"CC(=O)Cn1c(=O)c2c(ncn2[C@@H](C)C(=O)Nc2cccc(-c3cnc(N4CC5C(C4)C5(F)F)cn3)n2)n(C)c1=O (stereo partly drawn) [Compound 257, (2S)—N-(6-(5-(6,6-difluoro-3-azabicyclo[3.1.0]hexan-3-yl)pyrazin-2-yl)pyridin-2-yl)-2-(3-methyl-2,6-dioxo-1-(2-oxopropyl)-2,3-dihydro-1H-purin-7(6H)-yl)propanamide]"
21,7 nM,"COCC(=O)Cn1c(=O)c2c(ncn2[C@@H](C)C(=O)Nc2cccc(-c3ccc(N4CC5C(C4)C5(F)F)nc3)n2)n(C)c1=O (stereo partly drawn) [Compound 258, (2S)—N-(6′-(6,6-difluoro-3-azabicyclo[3.1.0]hexan-3-yl)-[2,3′-bipyridin]-6-yl)-2-(1-(3-methoxy-2-oxopropyl)-3-methyl-2,6-dioxo-2,3-dihydro-1H-purin-7(6H)-yl)propanamide]"
22,17 nM,"Cc1cc(Cn2c(=O)c3c(ncn3CC(=O)Nc3csc(-c4cnc(C(F)(F)F)nc4)n3)n(C)c2=O)no1 [Compound 259, 2-(3-methyl-1-((5-methylisoxazol-3-yl)methyl)-2,6-dioxo-2,3-dihydro-1H-purin-7(6H)-yl)-N-(2-(2-(trifluoromethyl)pyrimidin-5-yl)thiazol-4-yl)acetamide]"
23,17 nM,"Cc1noc(Cn2c(=O)c3c(ncn3CC(=O)Nc3csc(-c4cnc(C(F)(F)F)nc4)n3)n(C)c2=O)n1 [Compound 260, 2-(3-methyl-1-((3-methyl-1,2,4-oxadiazol-5-yl)methyl)-2,6-dioxo-2,3-dihydro-1H-purin-7(6H)-yl)-N-(2-(2-(trifluoromethyl)pyrimidin-5-yl)thiazol-4-yl)acetamide]"
24,5 nM,CC#CCn1c(=O)c2c(ncn2[C@@H](C)C(=O)Nc2cncc(-c3cnc(N4CC5CC5C4)nc3)n2)n(C)c1=O (stereo partly shown) [Compound 261]
25,1 nM,"CC#CCn1c(=O)c2c(ncn2[C@@H](C)C(=O)Nc2csc(-c3ccc(N4CC5C(C4)C5(F)F)nc3)n2)n(C)c1=O (stereo partly drawn) [Compound 262, (2S)-2-(1-(but-2-yn-1-yl)-3-methyl-2,6-dioxo-2,3-dihydro-1H-purin-7(6H)-yl)-N-(2-(6-(6,6-difluoro-3-azabicyclo[3.1.0]hexan-3-yl)pyridin-3-yl)thiazol-4-yl)propanamide]"
26,4 nM,"CC#CCn1c(=O)c2c(ncn2[C@@H](C)C(=O)Nc2csc(-c3ccc(N4CC5CC5C4)nc3)n2)n(C)c1=O (stereo partly drawn) [Compound 263, (2S)—N-(2-(6-(3-azabicyclo[3.1.0]hexan-3-yl)pyridin-3-yl)thiazol-4-yl)-2-(1-(but-2-yn-1-yl)-3-methyl-2,6-dioxo-2,3-dihydro-1H-purin-7(6H)-yl)propanamide]"

row,Structure (SMILES),IC50
1,"CC(=O)Cn1c(=O)c2c(ncn2CC(=O)Nc2cccc(-c3cnc(C)c(C(F)(F)F)c3)n2)n(C)c1=O [Compound 234, 2-(3-methyl-2,6-dioxo-1-(2-oxopropyl)2,3-dihydro-1H-purin-7(6H)-yl)-N-(6′-methyl-5′-(trifluoromethyl)-[2,3′-bipyridin]-6-yl)acetamide]",4 nM
2,"CC(=O)Cn1c(=O)c2c(ncn2CC(=O)Nc2cncc(-c3cnc(C)c(C(F)(F)F)c3)n2)n(C)c1=O [Compound 245, 2-(3-methyl-2,6-dioxo-1-(2-oxopropyl)-2,3-dihydro-1H-purin-7(6H)-yl)-N-(6-(6-methyl-5-(trifluoromethyl)pyridin-3-yl)pyrazin-2-yl)acetamide]",8 nM

# From US10221177B2 (HYDRA BIOSCIENCES, INC., priority 2014, dated 2019)
